Assay results published in PMC7617869, “Molecular glues that inhibit deubiquitylase activity and inflammatory signaling” (Nature Structural & Molecular Biology, 2025).
“And” between values parts separate entries of the source, which are not always exact repeats. Equal entries are not always repeated.

Key:
BRISC = biological target: T1, BRISC (Homo sapiens, UniProt P46736+Q15018+Q9NXR7); assay: BRISC DUB activity assay (IQF K63-linked diubiquitin); assay type: biochemical; details: for Normalised V0: replicate columns
T1 construct: made in house; host or cells: Spodoptera frugiperda (Sf9) insect cells, MultiBac
Procedure: IQF assays were performed in DUB reaction buffer containing 50 mM HEPES–NaOH pH 7.0, 100 mM NaCl, 0.1 mg ml^−1 BSA, 1 mM DTT and 0.03% v/v Brij-35. […] The final concentration of BRISC WT, all BRISC mutants, HsBRISCΔLoop, MmBRISC and DrBRISCΔNΔC was 1 nM. Other enzymes were tested at the following concentrations: 5 nM ARISC (FL), 10 nM CfBRISCΔNΔC, 250 nM AMSH* (ref. [43]), 500 nM USP2 and 1 μM trypsin (Sigma, 9002-07-7). For Michaelis–Menten experiments, 1 nM BRISC with 0–1 μM IQF K63-linked diubiquitin substrate was used. Michaelis–Menten analyses and Lineweaver–Burk plots were calculated using GraphPad Prism (version 9.0).
To assess enzymatic activity, BRISC complexes were diluted to concentrations between 1 nM and 50 nM. […] Then, 20-μl enzyme reactions were carried out in 384-well black flat-bottom low-flange plates (Corning, 35373). DUB activity was measured using IQF K63-linked diubiquitin (LifeSensors, DU6303) at 50 nM. Cleaved diubiquitin was monitored by measuring fluorescence intensity (excitation, 544 nm; emission, 575 nm; dichroic mirror, 560 nm). Fluorescence intensity was measured every minute for 30 min at 30 °C. Fluorescence intensity units were plotted against time to generate a linear reaction progress curve, where the initial velocity (V0) corresponds to the gradient of the curve (typically achieved within 15 min). IC50 values were calculated using the GraphPad Prism (version 9.0) built-in dose–response equation for inhibitor concentration versus response (variable slope).

[1] = system: ISG expression in MCF10A Cas9 cells expressing BRCC45 R137A; assay: MCF10A BRCC45 R137A ISG expression (RT–qPCR); assay type: cell-based, human; set-up: scale not given here; details: BRCC45 KO+ BRCC45 R137A; replicate values
Procedure: Supplementary Protocols 1. Experimental procedures for cell biology experiments. […]
Media supplements including human insulin solution (Santa Cruz Biotechnology, #sc-360248), cholera toxin from vibrio (Sigma Aldrich, #C8052-2MG), recombinant human EGF (PeproTech, #AF-100-15-100µg), hydrocortisone (Sigma-Aldrich, #H-0888) were used to grow MCF10A cells. The 4–12% Bis-Tris SDS-PAGE gels, cell culture media, horse serum and other materials for tissue culture were purchased from Invitrogen. LipoD293 (SigmaGen, #SL100668) was used for all the transfections to generate knock out cell lines.
Immortalised breast epithelial cell line MCF10A were cultured in 10 cm plates with Dulbecco’s Modified Eagle Medium (DMEM) + F-12 (1:1) supplemented with 5% horse serum, 100 ng/mL cholera toxin, 10 […]
Real-time quantitative PCR
1x10^5 MCF10A cells were cultured as described above and seeded into 6 well plates. Cells were left to reach ultra-confluence. Once confluent, cells were washed with PBS and starved for 30 minutes in 2 mL DMEM + F-12 (1:1) supplemented with 1% horse serum. After 30 minutes cells were pre-treated with either DMSO (0.1%) (Control and IFN only) or BRISC inhibitor (2.5 µM) for 15 minutes. After 15 minutes, hIFN2α (75 ng/mL) was added to the media and mixed. Cells were treated for 4 hours. Cells were washed with ice cold PBS and scraped with cell scrapers into 350 µL RNAlater buffer and RNA […]
#79254). Isolated RNA was quantified using a Nanodrop spectrophotometer. RNA was converted into cDNA and the complementary DNA was used for real-time quantitative PCR analysis of expression of interferon stimulated genes (ISG15, IFIT1, IFIT2, IFITM1, CXCL10 and RNA18S) using an Applied Biosystems Quantstudio 6 RT-PCR system. All experiments were carried out in triplicate.

## Cn1cc(NC(=O)c2c(Cl)cccc2Cl)c(C(=O)NC2CCN(C(=O)c3c(Cl)cccc3Cl)CC2)n1 [AP-5-145]
BRISC; IQF diubiquitin assay
  inhibition of BRISC DUB activity (in words): no inhibitory effect
BRISC; [Inhibitor] 0.013 μM
  Normalised V0: 0.9159 and 1.143 and 0.9058 and 0.9388
BRISC; [Inhibitor] 0.02 μM
  Normalised V0: 0.9923 and 1.0109
BRISC; [Inhibitor] 0.0399999 μM
  Normalised V0: 0.8997 and 0.9429
BRISC; [Inhibitor] 0.0599997 μM
  Normalised V0: 0.9873 and 1.113
BRISC; [Inhibitor] 0.0799994 μM
  Normalised V0: 0.9492 and 1.054
BRISC; [Inhibitor] 0.119998 μM
  Normalised V0: 0.9627 and 1.064
BRISC; [Inhibitor] 0.199996 μM
  Normalised V0: 0.9243 and 0.9333
BRISC; [Inhibitor] 0.499975 μM
  Normalised V0: 0.9206 and 1.055
BRISC; [Inhibitor] 0.799936 μM
  Normalised V0: 0.5226 and 1.107
BRISC; [Inhibitor] 1.25984 μM
  Normalised V0: 0.877 and 1.051
BRISC; [Inhibitor] 1.9996 μM
  Normalised V0: 0.8804 and 1.0497
BRISC; [Inhibitor] 3.159 μM
  Normalised V0: 0.8796 and 0.9314
BRISC; [Inhibitor] 5.19739 μM
  Normalised V0: 1.075 and 0.9343
BRISC; [Inhibitor] 7.99364 μM
  Normalised V0: 0.9828 and 1.083
BRISC; [Inhibitor] 12.7839 μM
  Normalised V0: 1.017 and 1.039
BRISC; [Inhibitor] 19.96 μM
  Normalised V0: 1.018 and 0.9724
BRISC; [Inhibitor] 31.4999 μM
  Normalised V0: 0.9031 and 1.019
BRISC; [Inhibitor] 50.147 μM
  Normalised V0: 0.9135 and 0.9224
BRISC; [Inhibitor] 79.7601 μM
  Normalised V0: 0.8955 and 0.9782
BRISC; [Inhibitor] 125.99 μM
  Normalised V0: 0.8989 and 0.9064
BRISC; [Inhibitor] 199.922 μM
  Normalised V0: 0.8256 and 0.9679
[1]
  ISG expression (Fig. 5b): 1.156 and 0.9393 and 0.8616 and 0.9356 and 0.9314
  ISG expression (Fig. 5c): 1.216 and 0.9273 and 0.916 and 0.9352 and 0.7895
  ISG expression (Fig. 5e): 1.091 and 0.9001 and 0.8733 and 0.8458 and 0.7765
  ISG expression (Fig. 5f): 1.662 and 0.8736 and 0.8819 and 0.8534 and 1.058
  ISG expression (Fig. 5d): 1.117 and 1.15 and 0.9989 and 1.074 and 0.7573
